These results are taken from US8524637B2, “Composition for controlling pests and method for controlling pests” (Sumitomo Chemical Company, Limited, priority 2008, dated 2013).

Each structure is given as a SMILES string.

The test system of the assay is Rhizoctonia solani. Briefly: Cucumber seed treatment test against Rhizoctonia solani (Test Example 1). It is filed as in vivo. The settings on record: cucumber seeds, acetone solution, seven days after seeding. The source says:
An emulsifiable concentrate was obtained by mixing clothianidin and metconazole.
In accordance with Seed Treatment Example 5, cucumber (Sagami Hanjiro) seeds were smeared with the emulsifiable concentrate using a rotary seed treating machine (seed dresser, manufactured by Hans-Ulrich Hege GmbH).
The obtained treated seeds were allowed to stand overnight and sown on the soil with which each plastic pot was filled and then covered with the soil mixed with Rhizoctonia solani cultured in a bran culture medium. While sprinkling, culture was conducted in a greenhouse. Seven days after seeding, the number of seeds not showing epicotyl emergence was checked and severity was calculated using Equation 1 shown below. Based on the severity, the control value was calculated using Equation 2.
For comparison, acetone solutions each having a predetermined concentration of clothianidin or metconazole were prepared by mixing each of clothianidin and metconazole with acetone, and the same test was carried out. Severity=(number of seeds not showing epicotyl emergence)×100/(total number of sown seeds) Equation 1 Control value=100×(A−B)/A Equation 2 • A: Severity of plants of the chemical non-treated district • B: Severity of plants of the chemical treated district

Consider `CC1(C)CCC(Cc2ccc(Cl)cc2)C1(O)Cn1cncn1` (centres unmarked) [Metconazole, metconazole], for which the Control value (clothianidin 0 g, metconazole 1 g per 100 kg of seeds) amounted to 39.
With `CN/C(=N\[N+](=O)[O-])NCc1cnc(Cl)s1` [Clothianidin, clothianidin], where the note is “clothianidin 200 g, metconazole 0 g per 100 kg of seeds”, the Control value is 4.
